Data on 25 compounds can be found in patent US20070249607A1, “NK-1 AND SEROTONIN TRANSPORTER INHIBITORS” (Bristol-Myers Squibb Company, priority 2006, published 2007).

Structures are written as SMILES. Where two headings read alike, the source gives them in different places.

In experiment [1] the target is T1, human serotonin transporters (Homo sapiens, UniProt P31645).
T1 construct: expressed in transfected cells
As to the kind of experiment: Serotonin transporter binding assay ([3H]-citalopram competition, HEK-hSERT cell membranes). The following applies: HEK-hSERT membranes, [3H]-citalopram displacement, read-out: SERT IC50. As for the experimental part:
Serotonin transporter binding assay. HEK-293 cells that stably express human serotonin transporters (HEK-hSERT cells) were grown at 37° C. in 5% CO2 as a monolayer in medium consisting of EMEM supplemented with 10% fetal bovine serum and G418 sulfate (500 μg/ml). To prepare membranes for radioligand binding experiments, cells were rinsed twice with phosphate-buffered saline (138 mM NaCl, 4.1 mM KCl, 5.1 mM Na2PO4, 1.5 mM KH2PO4, 11.1 mM glucose, pH 7.4). Cells were transferred from plates to polypropylene tubes (16×100 mm), centrifuged at 1,200×g for 5 min and were frozen at −80° C. until assay. Following centrifugation, pellets were resuspended by homogenization in buffer consisting of 50 mM Tris (pH 7.7 at 25° C.), 120 mM NaCl and 5 mM KCl and then centrifuged at 32,000×g for 10 min. Following centrifugation, supernatants were discarded and pellets were resuspended in buffer consisting of 50 mM Tris (pH 7.4 at 25° C.), 150 mM NaCl and 5 mM KCl. Membrane homogenates (200 μl/plate) were incubated with 1 nM [^3H]-citalopram (specific activity=85 Ci/mmol) and increasing concentrations of test compounds for 1 hr at 25° C. in a total volume of 250 μl. The assay buffer consisted of 50 mM Tris (pH 7.4 at 25° C.), 120 mM NaCl and 5 mM KCl (pH 7.4 with conc. HCl). Plates were incubated for 1 hr at 25° C., then filtered through 0.5% PEI treated Whatman GF/B filters using a Brandel cell harvester. Filters were washed three times with 3 ml of ice-cold tris wash buffer. Non-specific binding was defined with 10 μM fluoxetine. Amount of radioligand bound in the presence and absence of competitor was analyzed by plotting (-)log drug concentration versus the amount of radioligand specifically bound. The midpoint of the displacement curve (IC50, nM), signifies the potency. Ki values can be calculated using the method of Cheng and Prusoff (Cheng and Prusoff, BiochemicalPharmacology, Vol 22, pp. 3099-3108, Pergamon Press (1973)).

Experiment [2] has as its target T2, neurokinin-1 (NK-1) receptor (Homo sapiens, UniProt P25103).
T2 construct: a human glioblastoma-astrocytoma cell line that endogenously expresses the neurokinin-1 (NK-1) receptor; endogenous in cells; host or cells: U373 human glioblastoma-astrocytoma cells (membranes)
Put plainly: NK-1 Binding assay ([125I] Substance P competition, U373 cell membranes). As for the experimental part:
NK-1 Binding assay. U373 cells, a human glioblastoma-astrocytoma cell line that endogenously expresses the neurokinin-1 (NK-1) receptor, were grown in a monolayer culture at 37° C. in 5% CO2 and fed with Minimum Essential Medium (MEM) supplemented with 10% fetal bovine serum. Membranes were prepared as follows: Cells were washed twice with ice-cold phosphate-buffered saline (pH 7.4) and then incubated for 5-10 minutes with ice-cold 10 mM Tris buffer (pH 7.4) containing 5 mM EDTA. Cells were removed from plates, homogenized, and centrifuged at 32,000×g for 20 minutes. The resulting supernatant was discarded, and the pellet resuspended by homogenization in 50 mM Tris buffer (pH 7.4) containing 1 mM EDTA and centrifuged at 32,000×g for 20 minutes. The resulting supernatant was discarded, and the pellet resuspended by homogenization in NK-1 binding assay buffer (50 mM Tris-HCL (pH 7.4), 3 mM MnCl2, 200 μg/ml BSA, 5 μg/ml chymostatin, 40 μg/ml bacitracin and 4 μg/ml leupeptin).
On the day of an experiment the membrane preparation was thawed, homogenized and diluted with NK-1 binding assay buffer to the appropriate concentration. […] Substance P, at a concentration of […], and concentrations of drugs ranging from 10000 to 0.01 nM. Samples were incubated for 30 min at 20° C. then filtered through GF/B glass fiber filters (pretreated with 1% polyethyleneimine and 0.3% Triton X-100) using a Brandel cell harvester. The filters were then washed with 10 ml ice cold 50 mM Tris-HCL (pH 7.4) containing 3 mM MgCl2. […] The amount of radioligand bound in the presence and absence of competitor was analyzed by plotting (-)log drug concentration versus the amount of radioligand specifically bound. The midpoint of the displacement curve (IC50, nM), signifies the potency.

Setting [3] is: Table 1, U373 membranes, [125I] Substance P displacement, read-out: NK-1 IC50.

T1 sequence (P31645 whole entry): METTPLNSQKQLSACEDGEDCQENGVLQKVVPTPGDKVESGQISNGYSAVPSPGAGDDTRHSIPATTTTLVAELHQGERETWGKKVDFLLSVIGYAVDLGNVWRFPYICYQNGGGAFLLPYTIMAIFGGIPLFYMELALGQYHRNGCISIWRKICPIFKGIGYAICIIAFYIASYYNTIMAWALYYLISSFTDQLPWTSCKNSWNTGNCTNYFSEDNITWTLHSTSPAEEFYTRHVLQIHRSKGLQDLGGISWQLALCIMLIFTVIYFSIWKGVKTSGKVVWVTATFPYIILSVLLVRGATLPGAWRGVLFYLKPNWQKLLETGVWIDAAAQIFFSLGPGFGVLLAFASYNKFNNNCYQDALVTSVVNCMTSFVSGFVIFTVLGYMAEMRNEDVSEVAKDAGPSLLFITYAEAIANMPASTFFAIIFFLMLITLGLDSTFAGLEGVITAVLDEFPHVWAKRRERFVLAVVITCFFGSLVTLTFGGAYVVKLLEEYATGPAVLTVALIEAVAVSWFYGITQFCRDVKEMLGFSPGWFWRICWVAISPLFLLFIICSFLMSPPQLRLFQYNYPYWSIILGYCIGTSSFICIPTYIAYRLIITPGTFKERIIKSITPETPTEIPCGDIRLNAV
T2 sequence (P25103 whole entry): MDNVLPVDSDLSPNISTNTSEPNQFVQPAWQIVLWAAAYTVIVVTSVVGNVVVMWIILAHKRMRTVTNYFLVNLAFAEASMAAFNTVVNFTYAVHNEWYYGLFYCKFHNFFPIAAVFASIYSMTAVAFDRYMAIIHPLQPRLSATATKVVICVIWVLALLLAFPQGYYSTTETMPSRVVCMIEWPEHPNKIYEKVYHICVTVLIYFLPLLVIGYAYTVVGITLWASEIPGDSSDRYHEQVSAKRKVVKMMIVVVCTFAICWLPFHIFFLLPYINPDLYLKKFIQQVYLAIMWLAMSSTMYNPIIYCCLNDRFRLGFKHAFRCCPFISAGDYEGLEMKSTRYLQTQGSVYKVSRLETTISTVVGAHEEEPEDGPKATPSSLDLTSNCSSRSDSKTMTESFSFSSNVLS

Take `FC(F)(F)c1cc(COCC2(c3ccccc3)CCNCC2)cc(-c2ccncc2Cl)c1`: the IC50 in experiment [1] (Table 1) and in experiment [2] (setting [3]) was 0.01 to 100 nM throughout.
As for `Cc1cnccc1-c1cc(COCC2(c3ccccc3)CCNCC2)cc(C(F)(F)F)c1`, the IC50 in experiment [1] (Table 1) and in experiment [2] (setting [3]) was 0.01 to 100 nM in each case.
`CCOc1ccc(-c2cc(COCC3(c4ccccc4)CCNCC3)cc(C(F)(F)F)c2)cc1`: the IC50 in experiment [1] (Table 1) and in experiment [2] (setting [3]) was 0.01 to 100 nM in each case.
Consider `FC(F)(F)c1cccc(-c2cc(COCC3(c4ccccc4)CCNCC3)cc(C(F)(F)F)c2)c1`, for which the IC50 in experiment [1] (Table 1) and in experiment [2] (setting [3]) was 0.01 to 100 nM each time.
Take `COc1ccccc1-c1cc(COCC2(c3ccccc3)CCNCC2)cc(C(F)(F)F)c1`: the IC50 in experiment [1] (Table 1) and in experiment [2] (setting [3]) was 0.01 to 100 nM throughout.
For the compound `FC(F)(F)c1cc(COCC2(c3ccccc3)CCNCC2)cc(-c2cccc3c2oc2ccccc23)c1`, the IC50 (in general, the point on the concentration scale where inhibition reaches its midpoint) is 0.01 to 100 nM in experiment [1] (Table 1) and more than 300 nM in experiment [2] (setting [3]).
For the compound `FC(F)(F)c1cc(COCC2(c3ccccc3)CCNCC2)cc(-c2ccccc2Cl)c1`, the IC50 in experiment [1] (Table 1) and in experiment [2] (setting [3]) was 0.01 to 100 nM throughout.
`Fc1cccc(F)c1-c1cc(COCC2(c3ccccc3)CCNCC2)cc(C(F)(F)F)c1`: the IC50 in experiment [1] (Table 1) and in experiment [2] (setting [3]) was 0.01 to 100 nM in each case.
With `COc1ccc(-c2cc(COCC3(c4ccccc4)CCNCC3)cc(C(F)(F)F)c2)cc1F`, the IC50 in experiment [1] (Table 1) and in experiment [2] (setting [3]) was 0.01 to 100 nM each time.
For the compound `Fc1ccc(-c2cc(COCC3(c4ccccc4)CCNCC3)cc(C(F)(F)F)c2)cc1F`, the IC50 in experiment [1] (Table 1) and in experiment [2] (setting [3]) was 0.01 to 100 nM each time.
For `CCCCCc1ccc(-c2cc(COCC3(c4ccccc4)CCNCC3)cc(C(F)(F)F)c2)cc1`, the results for the half-maximal inhibitory concentration (IC50) in experiment [1] (Table 1) and in experiment [2] (setting [3]) were 100 to 300 nM and 0.01 to 100 nM, respectively.
`FC(F)(F)c1cc(COCC2(c3ccccc3)CCNCC2)cc(-c2ccccc2Oc2ccccc2)c1`: the IC50 in experiment [1] (Table 1) was 100 to 300 nM; in experiment [2] (setting [3]) it was more than 300 nM.
As for `Cc1cccc(C)c1-c1cc(COCC2(c3ccccc3)CCNCC2)cc(C(F)(F)F)c1`, the IC50 in experiment [1] (Table 1) and in experiment [2] (setting [3]) was 100 to 300 nM throughout.
For `FC(F)(F)c1cc(COCC2(c3ccccc3)CCNCC2)cc(-c2ccc3c(c2)OCO3)c1`, the IC50 in experiment [1] (Table 1) and in experiment [2] (setting [3]) was 0.01 to 100 nM in each case.
Consider `CC(C)(C)c1ccc(-c2cc(COCC3(c4ccccc4)CCNCC3)cc(C(F)(F)F)c2)cc1`, for which the IC50 in experiment [1] (Table 1) and in experiment [2] (setting [3]) was more than 300 nM throughout.
Take `COc1ccc(-c2cc(COCC3(c4ccccc4)CCNCC3)cc(C(F)(F)F)c2)c(OC)c1`: the 50% inhibitory concentration (IC50) in experiment [1] (Table 1) and in experiment [2] (setting [3]) was 0.01 to 100 nM throughout.
Turning to `Oc1cccc(-c2cc(COCC3(c4ccccc4)CCNCC3)cc(C(F)(F)F)c2)c1`, the IC50 in experiment [1] (Table 1) and in experiment [2] (setting [3]) was 0.01 to 100 nM in each case.
With `Oc1ccc(-c2cc(COCC3(c4ccccc4)CCNCC3)cc(C(F)(F)F)c2)cc1`, the 50% inhibitory concentration (IC50) in experiment [1] (Table 1) and in experiment [2] (setting [3]) was 0.01 to 100 nM in each case.
For `FC(F)(F)c1cc(COCC2(c3ccccc3)CCNCC2)cc(-c2ccc(Cl)c(Cl)c2)c1`, the IC50 in experiment [1] (Table 1) and in experiment [2] (setting [3]) was 0.01 to 100 nM in each case.
`FC(F)(F)Oc1ccc(-c2cc(COCC3(c4ccccc4)CCNCC3)cc(C(F)(F)F)c2)cc1`: the IC50 in experiment [1] (Table 1) and in experiment [2] (setting [3]) was 0.01 to 100 nM throughout.
Take `CC(=O)c1ccc(-c2cc(COCC3(c4ccccc4)CCNCC3)cc(C(F)(F)F)c2)cc1`: the results for the IC50 in experiment [1] (Table 1) and in experiment [2] (setting [3]) were 0.01 to 100 nM and 100 to 300 nM, respectively.
On the same counts, the results for `OCc1ccccc1-c1cc(COCC2(c3ccccc3)CCNCC2)cc(C(F)(F)F)c1` are 0.01 to 100 nM and 100 to 300 nM.
On the same counts, the results for `Fc1cc(-c2cc(COCC3(c4ccccc4)CCNCC3)cc(C(F)(F)F)c2)ccc1-c1ccccc1` are 0.01 to 100 nM and more than 300 nM.
For `COc1c(C)cc(-c2cc(COCC3(c4ccccc4)CCNCC3)cc(C(F)(F)F)c2)cc1C` the same measures were 100 to 300 nM and 100 to 300 nM.
Turning to `CC(C)N1CCC(COCc2cc(-c3ccc(C#N)cc3)cc(C(F)(F)F)c2)(c2ccccc2)CC1`, the values for the IC50 in experiment [1] (Table 2) and in experiment [2] were more than 300 nM and 0.01 to 100 nM, respectively.
